In paper PMC7316778 (Nature Communications, 2020):
Values joined by “and” are separate entries in the source; they are usually repeats but may differ in a detail not shown here. Equal values may be shown once. Read-outs that look alike come from different tables or passages of the source.

Tests used:
TBK1 = target: T1, TBK1 (Homo sapiens, UniProt Q9UHD2); test: SelectScreen kinase assay
T1 sequence (Q9UHD2 1-729): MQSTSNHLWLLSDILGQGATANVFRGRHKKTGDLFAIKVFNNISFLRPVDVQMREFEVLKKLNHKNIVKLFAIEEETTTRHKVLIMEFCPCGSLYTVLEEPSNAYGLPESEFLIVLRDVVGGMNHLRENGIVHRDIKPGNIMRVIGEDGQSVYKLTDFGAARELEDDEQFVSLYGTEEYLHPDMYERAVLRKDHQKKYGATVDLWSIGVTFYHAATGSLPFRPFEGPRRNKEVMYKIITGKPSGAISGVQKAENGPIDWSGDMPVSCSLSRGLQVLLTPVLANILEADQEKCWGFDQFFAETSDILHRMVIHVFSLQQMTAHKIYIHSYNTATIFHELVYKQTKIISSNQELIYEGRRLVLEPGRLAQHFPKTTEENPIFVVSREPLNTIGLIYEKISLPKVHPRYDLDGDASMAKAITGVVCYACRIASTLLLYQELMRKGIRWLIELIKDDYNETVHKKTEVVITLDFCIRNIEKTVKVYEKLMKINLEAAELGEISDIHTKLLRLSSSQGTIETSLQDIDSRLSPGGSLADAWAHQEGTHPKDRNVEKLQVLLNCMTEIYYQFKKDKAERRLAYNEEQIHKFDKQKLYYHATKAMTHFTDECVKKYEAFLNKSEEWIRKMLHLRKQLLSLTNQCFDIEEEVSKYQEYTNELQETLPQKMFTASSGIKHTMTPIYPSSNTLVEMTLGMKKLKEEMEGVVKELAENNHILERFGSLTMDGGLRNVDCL
Protocol: (§1) Selectivity profiling assays were performed by the Invitrogen SelectScreen™ Services. […] The concentration of ATP was selected to be equal to the KM, unless indicated otherwise.

RPS6KA5 (MSK1) = RPS6KA5 (MSK1) (Homo sapiens, UniProt O75582); test: SelectScreen kinase assay
Protocol: as §1

CDC7/DBF4 = CDC7/DBF4 (Homo sapiens, UniProt O00311); test: SelectScreen kinase assay
Sequence of CDC7/DBF4 (O00311 whole entry): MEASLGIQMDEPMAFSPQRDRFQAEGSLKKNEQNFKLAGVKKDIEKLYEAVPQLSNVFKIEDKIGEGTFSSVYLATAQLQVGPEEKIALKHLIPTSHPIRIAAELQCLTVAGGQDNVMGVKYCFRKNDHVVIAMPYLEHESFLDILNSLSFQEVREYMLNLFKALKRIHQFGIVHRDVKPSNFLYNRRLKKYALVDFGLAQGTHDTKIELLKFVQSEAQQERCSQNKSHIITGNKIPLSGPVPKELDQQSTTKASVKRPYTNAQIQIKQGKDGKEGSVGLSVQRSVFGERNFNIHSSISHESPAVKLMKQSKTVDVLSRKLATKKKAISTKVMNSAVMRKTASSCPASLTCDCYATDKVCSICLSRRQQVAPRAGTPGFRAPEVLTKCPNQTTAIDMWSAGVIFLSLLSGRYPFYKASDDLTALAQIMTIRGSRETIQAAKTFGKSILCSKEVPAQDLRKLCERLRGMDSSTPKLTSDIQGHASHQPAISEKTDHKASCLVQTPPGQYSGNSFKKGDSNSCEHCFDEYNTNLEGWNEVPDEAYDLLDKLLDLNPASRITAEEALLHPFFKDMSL
Sequence of CDC7/DBF4 (Q9UBU7 whole entry partner): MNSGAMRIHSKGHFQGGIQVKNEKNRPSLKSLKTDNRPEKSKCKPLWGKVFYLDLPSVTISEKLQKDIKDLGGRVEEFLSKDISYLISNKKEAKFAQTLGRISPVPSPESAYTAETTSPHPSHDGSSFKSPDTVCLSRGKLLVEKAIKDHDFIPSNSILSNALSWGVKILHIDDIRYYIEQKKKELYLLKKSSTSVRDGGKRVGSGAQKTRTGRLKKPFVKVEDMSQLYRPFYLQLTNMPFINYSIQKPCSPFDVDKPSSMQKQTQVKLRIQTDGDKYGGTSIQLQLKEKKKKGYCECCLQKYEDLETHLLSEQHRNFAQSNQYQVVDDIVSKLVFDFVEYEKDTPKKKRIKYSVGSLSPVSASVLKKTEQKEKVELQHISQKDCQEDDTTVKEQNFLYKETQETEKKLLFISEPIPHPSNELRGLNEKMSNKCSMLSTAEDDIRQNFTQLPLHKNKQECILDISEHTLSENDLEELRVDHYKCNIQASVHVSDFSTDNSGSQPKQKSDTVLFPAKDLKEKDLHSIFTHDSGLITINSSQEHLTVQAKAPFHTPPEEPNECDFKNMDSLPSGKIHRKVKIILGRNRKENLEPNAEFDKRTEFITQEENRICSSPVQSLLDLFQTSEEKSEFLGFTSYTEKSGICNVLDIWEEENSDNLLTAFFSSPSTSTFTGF
Protocol: as §1

PIP5K1C = PIP5K1C (Homo sapiens, UniProt O60331); test: SelectScreen kinase assay
Sequence of PIP5K1C (O60331 whole entry): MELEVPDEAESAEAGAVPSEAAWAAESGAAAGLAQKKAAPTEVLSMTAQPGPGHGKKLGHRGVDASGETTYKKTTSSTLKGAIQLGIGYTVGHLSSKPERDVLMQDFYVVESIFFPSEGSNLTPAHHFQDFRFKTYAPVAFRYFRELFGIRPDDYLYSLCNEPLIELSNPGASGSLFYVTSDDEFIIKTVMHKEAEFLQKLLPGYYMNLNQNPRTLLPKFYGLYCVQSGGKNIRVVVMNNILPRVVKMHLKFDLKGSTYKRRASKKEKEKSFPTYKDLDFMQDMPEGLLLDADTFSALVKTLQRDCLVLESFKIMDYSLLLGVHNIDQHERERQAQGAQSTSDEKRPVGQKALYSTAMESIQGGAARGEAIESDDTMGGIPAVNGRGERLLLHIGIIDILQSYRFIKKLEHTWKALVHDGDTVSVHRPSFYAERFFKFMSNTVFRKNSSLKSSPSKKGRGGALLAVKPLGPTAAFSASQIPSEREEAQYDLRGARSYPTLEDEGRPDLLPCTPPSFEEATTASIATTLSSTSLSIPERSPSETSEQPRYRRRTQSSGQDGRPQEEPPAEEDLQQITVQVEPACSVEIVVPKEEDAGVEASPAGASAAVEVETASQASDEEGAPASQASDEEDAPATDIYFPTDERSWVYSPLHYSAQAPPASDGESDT
Protocol: as §1

PEAK1 = PEAK1 (Homo sapiens, UniProt Q9H792); test: SelectScreen kinase assay
Protocol: as §1

[1] = target: T2, FES^S700C-SYK interaction (Homo sapiens, UniProt P07332, S700C); test: Co-immunoprecipitation in co-transfected U2OS cells; assay type: cell-based; conditions: WEL028 200 nM, 1 h
T2 construct: Full-length human cDNA encoding FES and PAK4 was obtained from Source Bioscience; expressed in transfected cells; host or cells: U2OS (human osteosarcoma)
Protocol: U2OS cells were co-transfected with FLAG-tagged FES and V5-tagged SYK and grown for 48 h as described above, followed by incubation with vehicle or WEL028 (200 nM) for 1 h. Cells were then washed with PBS and collected by scraping in IP-buffer (20 mM Tris-HCl pH 7.5, 150 mM NaCl, 1% Triton X-100 supplemented with […] Halt™ phosphatase and protease inhibitor cocktail (Thermo Fisher)). Cells were lysed by sonication on ice (three cycles of 10′′ on, 10′′ off at 25% maximum amplitude), centrifuged (14,000g, 10 min, 4 °C). The clear lysate was diluted to 1 mg/mL in IP-buffer and subjected to immunoprecipitation using Dynabeads™ Protein G Immunoprecipitation kit (Thermo Fisher) following manufacturer’s protocol. Briefly, anti-FLAG M2 antibody (1:100, Sigma Aldrich, F3156) was incubated with beads with gentle rotation (10 min, rt), after which lysate (500 µL of 1 mg/mL) was added and incubated (1 h, 4 °C). Beads were washed three times, transferred to clean tubes and eluted by suspension in 2× Laemmli buffer (50 µL, 10 min, 70 °C). Samples (10 µL per lane) were resolved by SDS-PAGE and immunoblotted using anti-V5 or anti-FLAG antibodies. Immunoprecipitations were performed in three independent replicates.

ROS1 = ROS1 (Homo sapiens, UniProt P08922); test: SelectScreen kinase assay
Sequence of ROS1 (P08922 28-2347, species assumed): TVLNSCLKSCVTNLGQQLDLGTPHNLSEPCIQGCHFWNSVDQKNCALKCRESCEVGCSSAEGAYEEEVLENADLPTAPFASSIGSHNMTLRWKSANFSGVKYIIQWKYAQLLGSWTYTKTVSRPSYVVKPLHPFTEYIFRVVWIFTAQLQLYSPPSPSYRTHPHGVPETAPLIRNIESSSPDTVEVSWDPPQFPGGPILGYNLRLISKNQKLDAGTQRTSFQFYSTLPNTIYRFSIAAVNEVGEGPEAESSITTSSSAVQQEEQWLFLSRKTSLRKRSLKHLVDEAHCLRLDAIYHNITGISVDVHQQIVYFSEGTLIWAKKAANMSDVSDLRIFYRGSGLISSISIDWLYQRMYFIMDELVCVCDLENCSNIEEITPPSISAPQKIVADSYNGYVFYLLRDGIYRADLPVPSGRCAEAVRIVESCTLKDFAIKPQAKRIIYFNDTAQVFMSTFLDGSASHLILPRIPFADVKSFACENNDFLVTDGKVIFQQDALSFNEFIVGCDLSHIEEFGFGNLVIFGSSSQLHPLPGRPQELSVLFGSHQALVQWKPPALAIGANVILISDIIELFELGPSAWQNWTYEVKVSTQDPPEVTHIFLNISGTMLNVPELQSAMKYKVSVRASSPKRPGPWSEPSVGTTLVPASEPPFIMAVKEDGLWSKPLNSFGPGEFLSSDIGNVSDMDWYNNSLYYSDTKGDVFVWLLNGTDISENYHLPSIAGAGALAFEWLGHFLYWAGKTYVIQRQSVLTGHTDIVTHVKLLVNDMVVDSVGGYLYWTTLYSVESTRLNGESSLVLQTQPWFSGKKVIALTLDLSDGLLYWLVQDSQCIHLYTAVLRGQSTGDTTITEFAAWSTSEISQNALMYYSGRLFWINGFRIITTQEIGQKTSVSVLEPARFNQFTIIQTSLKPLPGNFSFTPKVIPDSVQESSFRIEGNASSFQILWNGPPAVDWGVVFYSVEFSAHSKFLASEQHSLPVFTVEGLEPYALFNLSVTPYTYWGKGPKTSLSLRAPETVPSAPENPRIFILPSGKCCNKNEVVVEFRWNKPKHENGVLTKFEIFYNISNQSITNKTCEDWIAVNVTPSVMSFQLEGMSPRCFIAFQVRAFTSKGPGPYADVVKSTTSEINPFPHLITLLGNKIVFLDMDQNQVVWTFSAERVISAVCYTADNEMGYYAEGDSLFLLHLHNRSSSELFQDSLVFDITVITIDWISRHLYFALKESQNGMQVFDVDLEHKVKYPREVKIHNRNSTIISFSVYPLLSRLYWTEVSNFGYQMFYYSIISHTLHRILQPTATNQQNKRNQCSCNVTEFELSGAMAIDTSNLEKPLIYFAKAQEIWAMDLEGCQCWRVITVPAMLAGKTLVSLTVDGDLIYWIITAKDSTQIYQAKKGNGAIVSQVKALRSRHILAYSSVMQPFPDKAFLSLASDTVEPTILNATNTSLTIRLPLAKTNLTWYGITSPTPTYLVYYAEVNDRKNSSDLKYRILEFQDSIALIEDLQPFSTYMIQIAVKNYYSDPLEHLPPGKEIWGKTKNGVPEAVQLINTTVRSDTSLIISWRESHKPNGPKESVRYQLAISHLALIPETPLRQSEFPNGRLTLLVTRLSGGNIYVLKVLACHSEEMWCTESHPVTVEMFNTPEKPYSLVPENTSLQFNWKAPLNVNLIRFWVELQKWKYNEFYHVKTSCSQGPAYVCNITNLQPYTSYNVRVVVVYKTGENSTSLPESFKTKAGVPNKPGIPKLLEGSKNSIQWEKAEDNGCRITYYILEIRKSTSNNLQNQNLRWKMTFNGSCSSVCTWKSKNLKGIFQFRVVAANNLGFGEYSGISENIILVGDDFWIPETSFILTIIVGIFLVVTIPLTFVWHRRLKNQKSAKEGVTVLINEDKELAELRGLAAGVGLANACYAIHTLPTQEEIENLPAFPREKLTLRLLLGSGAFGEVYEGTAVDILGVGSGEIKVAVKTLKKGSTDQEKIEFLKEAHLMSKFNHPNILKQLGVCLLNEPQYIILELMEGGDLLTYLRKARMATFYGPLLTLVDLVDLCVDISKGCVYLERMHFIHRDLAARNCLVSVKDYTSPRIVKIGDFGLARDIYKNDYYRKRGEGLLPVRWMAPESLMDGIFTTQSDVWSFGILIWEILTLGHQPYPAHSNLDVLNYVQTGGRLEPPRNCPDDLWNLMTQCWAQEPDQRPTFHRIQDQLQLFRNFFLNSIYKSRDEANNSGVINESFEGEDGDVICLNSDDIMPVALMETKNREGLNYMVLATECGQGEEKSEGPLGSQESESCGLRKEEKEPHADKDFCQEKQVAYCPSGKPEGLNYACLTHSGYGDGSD
Protocol: as §1

ZAK = ZAK (Homo sapiens, UniProt Q9NYL2); test: SelectScreen kinase assay; conditions: for Inhibition at 1 µM (%): LanthaScreen Binding
Sequence of ZAK (Q9NYL2 whole entry): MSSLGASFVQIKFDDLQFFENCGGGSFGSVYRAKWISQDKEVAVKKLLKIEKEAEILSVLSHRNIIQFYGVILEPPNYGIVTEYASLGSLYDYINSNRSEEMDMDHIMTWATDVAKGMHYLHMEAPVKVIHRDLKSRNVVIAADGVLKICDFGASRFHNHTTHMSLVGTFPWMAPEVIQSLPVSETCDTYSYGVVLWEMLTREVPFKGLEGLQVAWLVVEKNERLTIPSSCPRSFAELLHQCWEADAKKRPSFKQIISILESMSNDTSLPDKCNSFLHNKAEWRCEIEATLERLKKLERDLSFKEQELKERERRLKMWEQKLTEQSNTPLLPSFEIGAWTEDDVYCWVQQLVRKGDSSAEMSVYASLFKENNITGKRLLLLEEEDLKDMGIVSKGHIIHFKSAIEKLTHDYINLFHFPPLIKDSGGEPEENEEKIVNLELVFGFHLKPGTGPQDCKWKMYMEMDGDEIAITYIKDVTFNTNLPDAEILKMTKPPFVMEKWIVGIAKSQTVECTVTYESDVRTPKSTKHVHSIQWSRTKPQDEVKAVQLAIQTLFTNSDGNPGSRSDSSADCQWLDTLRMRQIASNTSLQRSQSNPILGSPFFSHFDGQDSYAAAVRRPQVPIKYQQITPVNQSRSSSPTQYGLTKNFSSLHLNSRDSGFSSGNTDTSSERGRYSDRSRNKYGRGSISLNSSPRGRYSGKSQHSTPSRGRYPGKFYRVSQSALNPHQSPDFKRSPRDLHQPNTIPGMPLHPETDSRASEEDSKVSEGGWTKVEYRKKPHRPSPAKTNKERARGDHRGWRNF
Protocol: as §1

[2] = 1 µM, ZLYTE, ATP Km app, listed as WEL028, 1 µM
[3] = 1 h, 1 μM WEL028, 1 h preincubation
[4] = read-out: Inhibition at 1 µM (%), 1 µM, ZLYTE, ATP Km app

C#CCOc1ccc(Nc2ncc(Cl)c(Nc3ccccc3NC(=O)C=C)n2)c(OC)c1 [Compound 6]
Inhibition at 1 µM (%) (TBK1; [2]): 6%
inhibition at 1 µM (TBK1; [3]): 7%
inhibition at 1 µM (TBK1; [4]): 8%
Inhibition at 1 µM (%) (RPS6KA5 (MSK1); 1 µM, ZLYTE, ATP Km app): -13%
inhibition at 1 µM (RPS6KA5 (MSK1); [3]): -7%
inhibition at 1 µM (CDC7/DBF4; [3]): 3%
Inhibition at 1 µM (%) (CDC7/DBF4; CDC7/DBF4, 1 µM, LanthaScreen Binding, listed as WEL028, 1 µM): 6% and 1%
Inhibition at 1 µM (%) (PIP5K1C; PIP5K1C, Adapta, ATP 10, listed as WEL028, 1 µM): 1%
inhibition at 1 µM (PIP5K1C; read-out: Inhibition at 1 µM (%), PIP5K1C, Adapta, ATP 10): 2%
inhibition at 1 µM (PEAK1; [3]): 7%
Inhibition at 1 µM (%) (PEAK1; PEAK1, 1 µM, ZLYTE, ATP Km app, listed as WEL028, 1 µM): 8%
inhibition at 1 µM (PEAK1; read-out: Inhibition at 1 µM (%), PEAK1, 1 µM, ZLYTE, ATP Km app): 6%
Co-precipitation of SYK with FES [1]: inhibited the co-precipitation of SYK with FES
IC50 (ROS1): > 10 µM
Inhibition at 1 µM (%) (ROS1; [2]): 52%
inhibition at 1 µM (ROS1; [3]): 56%
inhibition at 10 µM (ROS1; 1 h, log[inhibitor] (M) -5.00, ZLYTE, ATP Km app): 76%
inhibition at 3.31 µM (ROS1; 1 h, log[inhibitor] (M) -5.48, ZLYTE, ATP Km app): 80%
inhibition at 1.12 µM (ROS1; 1 h, log[inhibitor] (M) -5.95, ZLYTE, ATP Km app): 53%
inhibition at 0.372 µM (ROS1; 1 h, log[inhibitor] (M) -6.43, ZLYTE, ATP Km app): 42%
inhibition at 0.123 µM (ROS1; 1 h, log[inhibitor] (M) -6.91, ZLYTE, ATP Km app): 23%
inhibition at 0.00151 µM (ROS1; 1 h, log[inhibitor] (M) -8.82, ZLYTE, ATP Km app): 6%
Apparent fold selectivity (ROS1; IC50 on that kinase divided by IC50 on FES^S700C): > 238 fold
inhibition at 1 µM (ROS1; [4]): 60%
Inhibition at 1 µM (%) (ZAK): 2%
Inhibition at 1 µM (%) (ZAK; listed as WEL028, 1 µM): 6%
inhibition at 1 µM (ZAK; [3]): 4%
